# Test results as given in US4826958A, “Renin inhibiting compounds” (Abbott Laboratories, priority 1988, dated 1989).
# Target: T1, human renal renin (Homo sapiens, UniProt P00797)
# T1 construct: human renal renin, free from acid proteolytic activity; from tissue; host or cells: human kidney (renal)
# T1 sequence (P00797 67-406): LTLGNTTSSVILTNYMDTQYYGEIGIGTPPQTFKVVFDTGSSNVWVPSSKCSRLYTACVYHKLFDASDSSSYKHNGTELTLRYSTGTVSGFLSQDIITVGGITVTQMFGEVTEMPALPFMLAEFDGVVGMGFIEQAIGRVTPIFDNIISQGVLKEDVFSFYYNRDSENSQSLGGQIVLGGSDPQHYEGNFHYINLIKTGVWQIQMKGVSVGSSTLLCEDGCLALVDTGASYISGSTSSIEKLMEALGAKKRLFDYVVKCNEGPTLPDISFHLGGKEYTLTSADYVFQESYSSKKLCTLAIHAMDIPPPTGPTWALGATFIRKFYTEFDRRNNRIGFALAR
# Assay: inhibition of human renal renin in vitro, angiotensin I formed measured by radioimmunoassay
# Assay type: biochemical
# Conditions: human renal renin with human renin substrate (angiotensinogen), 37° C., pH 6.0
row,Molecule,IC50 [nM]
1,"CCC(C)CNC(=O)C(OCc1ccccc1)C(O)C(CC1CCCCC1)NC(=O)C(Cc1cnc[nH]1)NC(=O)C(Cc1ccccc1)NC(=O)OC(C)(C)C (stereo not drawn) [Example 33, Boc-Phe-Histidinyl-4-amino-2-benzyloxy-3-hydroxy-5-cyclohexylpentanoic acid amide of 2-methylbutylamine]",35
2,"CCC(C)CNC(=O)CC(O)C(CC1OCCO1)NC(=O)C(CSC)NC(=O)C(Cc1ccccc1)NC(=O)OC(C)(C)C (stereo not drawn) [Example 80, Boc-Phe-S-methylcysteinyl-[3-hydroxy-4-amino-5-(1',3'-dioxolan-2'-yl)]-pentanoic acid amide of 2-methylbutylamine]",600
3,"CC(C)CC(NC(=O)C(Cc1cnc[nH]1)NC(=O)C(Cc1ccccc1)NC(=O)OC(C)(C)C)C(O)CC(=O)NCc1ccccc1 (stereo not drawn) [Example 10, Boc-Phe-His-Sta amide of benzylamine]",700
4,"CCC(C)CNC(=O)CC(O)C(CC1OCCCO1)NC(=O)[C@H](CSC)NC(=O)[C@H](Cc1ccccc1)NC(=O)OC(C)(C)C (stereo partly drawn) [Example 81, Boc-Phe-S-methylcysteinyl-[3-hydroxy-4-amino-5-(1',3'-dioxan-2'-yl)]-pentanoic acid amide of 2-methylbuylamine]",700
5,"CCC(C)C(CO)NC(=O)CC(O)C(CC(C)C)NC(=O)C(C)NC(=O)C(Cc1cccc2ccccc12)NC(=O)OC(C)(C)C (stereo not drawn) [Example 13, Boc-(α-Naphthyl)Ala-Ala-Sta-amide of isoleucinol]",50
6,"CC(C)CCNC(=O)CC(O)C(CC1CCCCC1)NC(=O)C(Cc1cnc[nH]1)NC(=O)C(Cc1ccccc1)NC(=O)OC(C)(C)C (stereo not drawn) [Example 25, Boc-Phe-His-ACHPA amide of isopentylamine]",5
7,"CCC(C)CNC(=O)C(O)C(O)C(CC1CCCCC1)NC(=O)C(C)NC(=O)C(Cc1ccccc1)NC(=O)OC(C)(C)C (stereo not drawn) [Example 34, Boc-Phe-Alaninyl-4-amino-2,3-dihydroxy-5-cyclohexylpentanoic acid amide of 2-methylbutylamine]",20
8,"CC(C)CNC(=O)CC(O)C(CC(C)C)NC(=O)C(Cc1cnc[nH]1)NC(=O)C(Cc1ccccc1)NC(=O)OC(C)(C)C (stereo not drawn) [Example 12, Boc-Phe-His-Sta amide of isobutylamine]",500
9,"CCOC(=O)N[C@@H](Cc1ccccc1)C(=O)N[C@@H](CC(C)C)C(=O)NC(CC1OCCCO1)C(O)CC(=O)NCC(C)CC (stereo partly drawn) [Example 82, Ethoxycarbonyl-Phe-Leu-[3-hydroxy-4-amino-5-(1',3'-dioxan-2'-yl)]-pentanoicacid amide of 2-methylbutylamine]",7500
10,"2(R,S)-(4-morpholinylcarbonylmethyl)-3-(4'-methoxyphenyl)-propionyl-His-ACHPA-amide of 2-methylbutylamine [Example 89]",61
11,"CCC(C)CNC(=O)C(OC)C(O)C(CC1CCCCC1)NC(=O)[C@H](Cc1cnc[nH]1)NC(=O)[C@H](Cc1ccccc1)NC(=O)OC(C)(C)C (stereo partly drawn) [Example 40, Boc-Phe-Histidinyl-4-amino-2-methoxy-3-hydroxy-5-cyclohexylpentanoic acid amide of 2-methylbutylamine]",30
12,"(3,4-cis-dihydroxypyrrolidinylcarbonyl)-O-methyl-Tyr-O-methyl-Ser-ACHPA Amide of 2-Methylbutylamine [Example 97]",16
13,"CCC(C)CNC(=O)C[C@H](O)[C@H](CC(C)C)NC(=O)[C@H](Cc1c[nH]cn1)NC(=O)[C@H](Cc1ccc(I)cc1)NC(=O)OC(C)(C)C (stereo partly drawn) [Example 17, Boc-p-iodo-Phe-His-Sta amide of 2-methylbutylamine]",1000
14,Boc-(α-Naphthyl)-Ala-Ala-Sta amide of benzylamine [Example 11],400
15,"CCC(C)CNC(=O)CC(O)C(CC(C)C)NC(=O)C(Cc1cnc[nH]1)NC(=O)C(Cc1ccccc1)NC(=O)CC(C)(C)C (stereo not drawn) [Example 16, t-Butylacetyl-Phe-His-Sta amide of 2-methylbutylamine]",100

# Further lines, results first:
row,IC50 [nM],Molecule
1,7,"CCC(C)CNC(=O)C(O)C(O)C(CC1CCCCC1)NC(=O)C(Cc1cnc[nH]1)NC(=O)C(Cc1ccccc1)NC(=O)OC(C)(C)C (stereo not drawn) [Example 35, Boc-Phe-Histidinyl-4-amino-2,3-dihydroxy-5-cyclohexylpentanoic acid amide of 2-methylbutylamine]"
2,1.5,"CCC(C)CNC(=O)CC(O)C(CC1SCCS1)NC(=O)C(Cc1cnc[nH]1)NC(=O)C(Cc1ccccc1)NC(=O)OC(C)(C)C (stereo not drawn) [Example 83, Boc-Phe-His-[3-hydroxy-4-amino-5-(1',3'-dithiolan-2'-yl)]-pentanoic acid amide of 2-methylbutylamine]"
3,2,"2(R,S)-(4-morpholinylcarbonylmethyl)-3-(1'-naphthyl)-propionyl-His-ACHPA-amide of 2-methylbutylamine [Example 87]"
4,6,"CCC(C)CNC(=O)C(OCc1ccccc1)C(O)C(CC1CCCCC1)NC(=O)[C@H](C)NC(=O)[C@H](Cc1ccccc1)NC(=O)OC(C)(C)C (stereo partly drawn) [Example 32, Boc-Phe-Alaninyl-4-amino-2-benzyloxy-3-hydroxy-5-cyclohexylpentanoic acid amide of 2-methylbutylamine]"
5,1.5,"CCCC(C(=O)NCC(C)CC)C(O)C(CC1CCCCC1)NC(=O)C(Cc1cnc[nH]1)NC(=O)C(Cc1ccccc1)NC(=O)OC(C)(C)C (stereo not drawn) [Example 46, Boc-Phe-Histidinyl-4-amino-2-propyl-3-hydroxy-5-cyclohexylpentanoic acid amide of 2-methylbutylamine]"
6,0.56,"CCC(C)CNC(=O)CC(O)C(CC1CCCCC1)NC(=O)C(CSC)NC(=O)C(Cc1ccccc1)NC(=O)N1C[C@@H](O)[C@@H](O)C1 (stereo partly drawn) [Example 95, (3,4-cis-dihydroxypyrrolidinylcarbonyl)-Phe-S-methyl-cys-ACHPA-amide of 2-Methylbutylamine]"
7,1.5,"C=CCC(C(=O)NCC(C)CC)C(O)C(CC1CCCCC1)NC(=O)C(C)NC(=O)C(Cc1ccccc1)NC(=O)OC(C)(C)C (stereo not drawn) [Example 49, Boc-Phe-Alaninyl-4-amino-2-allyl-3-hydroxy-5-cyclohexylpentanoic acid amide of 2-methylbutylamine]"
8,0.7,"CCC(C)CNC(=O)C(OC)C(O)C(CC1CCCCC1)NC(=O)C(CSC)NC(=O)C(Cc1ccccc1)NC(=O)OC(C)(C)C (stereo not drawn) [Example 48, Boc-Phe-S-methylcysteinyl-4-amino-2-methoxy-3-hydroxy-5-cyclohexlpentanoic acid amide of 2-methylbutylamine]"
9,1,"CCC(C)CNC(=O)CC(O)C(CC1SCCS1)NC(=O)[C@H](CSC)NC(=O)[C@H](Cc1ccccc1)NC(=O)OC(C)(C)C (stereo partly drawn) [Example 78, Boc-Phe-S-methylcysteinyl-[3-hydroxy-4-amino-5-(1',3'-dithiolan-2'-yl)]-pentanoic acid amide of 2-methylbutylamine]"
10,1,"C=CCC(C(=O)NCC(C)CC)C(O)C(CC1CCCCC1)NC(=O)C(Cc1cnc[nH]1)NC(=O)C(Cc1ccccc1)NC(=O)OC(C)(C)C (stereo not drawn) [Example 45, Boc-Phe-Histidinyl-4-amino-2-allyl-3-hydroxy-5-cyclohexylpentanoic acid amide of 2-methylbutylamine]"
11,1,"C=CCC(C(=O)NCC(C)CC)C(O)C(CC1CCCCC1)NC(=O)C(CSC)NC(=O)C(Cc1ccccc1)NC(=O)OC(C)(C)C (stereo not drawn) [Example 50, Boc-Phe-S-methylcysteinyl-4-amino-2-allyl-3-hydroxy-5-cyclohexylpentanoic acid amide of 2-methylbutylamine]"
12,6,"CCC(C)CNC(=O)CC(O)C(CC1SCCCS1)NC(=O)C(CSC)NC(=O)C(Cc1ccccc1)NC(=O)OC(C)(C)C (stereo not drawn) [Example 79, Boc-Phe-S-methylcysteinyl-[3-hydroxy-4-amino-5-(1',3'-dithian-2'-yl)]-pentanoic acid amide of 2-methylbutylamine]"
13,1,"CCC(C)CNC(=O)C(OC)C(O)C(CC1CCCCC1)NC(=O)C(CCSC)NC(=O)C(Cc1ccccc1)NC(=O)OC(C)(C)C (stereo not drawn) [Example 47, Boc-Phe-Methioninyl-4-amino-2-methoxy-3-hydroxy-5-cyclohexylpentanoic acid amide of 2-methylbutylamine]"
